Test results from article PMC11206507, “Unraveling the Impact of Six Pentacyclic Triterpenes Regulating Metabolic Pathways on Lung Carcinoma Cells” (Pharmaceuticals, 2024).
Entries after “also recorded” stand apart in the source; their conditions may differ. Like-named read-outs stand apart in the source and are kept apart here.

Legend:
[1] = system: NSCLC A549 cells; experiment: MTS/PMS cell viability, A549; type: cell-based, human; settings: for TI > 1: summary, MRC5 vs A549; for TI > 1: key: '✔' means induction; '-' means non-induction of any of the tested processes
Description: A similar procedure was performed to determine the IC50 of the triterpenes in a normal lung fibroblast cell line (MRC5). In brief, the A549 and MRC5 cells were seeded into 96-well plates at a density of 1 × 10^5 cells/mL in supplemented DMEM medium. […] Then, 10 uL of the MTS reagent from the CellTiter 96® Aqueous Non-Radioactive Cell Proliferation Assay (Promega G5421) was added to each well. Then, we incubated the plates at 37 °C and in a 5% CO2 atmosphere for 1 h. After incubation, the absorbance was measured at 492 nm (n = 8) in a microplate reader spectrophotometer (Thermoscientific Multiskan FC). The cell viability was calculated as follows:% Viability = (sample absorbance − sample media absorbance)/(untreated cells’ absorbance − untreated cells’ media absorbance) × 100
The cell viability data were presented by plotting the values with an average of eight measurements for each treatment (mean ± SD) in at least three independent experiments. The IC50 values were calculated with the GraphPad Prism 9 software (Prism 9; GraphPad by Dotmatics, San Diego, CA, USA) using the dose–response curve.

[2] = system: caspase 3; experiment: Caspase 3 activity assay (Apo-ONE Caspase-3/7); type: cell-based, human; settings: for Caspase 3 activation (in words): A549, IC50, 24 h, vs untreated cells and CisPt
Description: The intrinsic apoptosis activity was evaluated by the quantification of caspase 3 enzymatic activity using the Apo-ONE® Homogeneous Caspase-3/7 Assay (Promega G7792). A549 cells were seeded in a concentration of 1 × 10^5 cells/mL into black 96-well plates with a clear bottom. […] After the completion of the incubation, 50 μL of Apo-ONE® Caspase-3/7 Reagent (1:100 rhodamine 110 bis-(N-CBZ-l-aspartyl-l-glutamyl-l-valyl-aspartic acid amide) (Z-DEVD-R110) substrate diluted in lysis buffer) was added to each well. The plate was gently mixed using a plate shaker at 150 rpm for 2 h at room temperature. Then, the fluorescence of each well was measured (Ex/Em = 485/530 nm) in the Tecan® M200 plate reader.
The caspase 3 activity experiments were performed in triplicate. All data were expressed by plotting the values with an average of three measurements for each treatment condition as the mean ± SD and analyzed with the software GraphPad Prism 9 (San Diego, CA, USA). Statistical analysis was performed using one-way analysis of variance (ANOVA) to compare the mean value of each type of treated cells versus the control (untreated cells). The statistical significance defined by the software for p values was **** < 0.0001, *** from 0.001 to 0.0001, ** from 0.001 to 0.01, * from 0.01 to 0.05, and non-significant (ns) ≥ 0.05.

[3] = system: LC3-II; experiment: Autophagy induction assay (LC3 antibody, flow cytometry); type: cell-based, human; settings: for Autophagic response (in words): A549, IC25, 24 h, vs controls (untreated ratio 0.8, starving ratio 1); for Autophagy inhibition: summary, NSCLC A549 cells
Description: (§1) We used flow cytometry to analyze several cellular mechanistic pathways in A549 cells after incubation with the triterpenes. In general, the cells were seeded in a 6-well plate at a density of 1 × 10^6 cells/mL and incubated for 24 h in supplemented DMEM. After 24 h, the A549 cells were treated with the triterpenes, following each manufacturer’s protocol. All of the following experiments were performed in a Muse® Cell Analyzer (EMD Millipore Corporation, Temecula, CA). The instrument was calibrated before each assay using the Muse® System Check Kit (Luminex MCH100101, Luminex Corporation). Each assay was run at least in two independent experiments. For each experiment, all samples were analyzed in triplicate in the instrument and the capillary line was washed after each sample run to avoid artifacts. In addition, to address the issue of cell doublets, we used the Muse® Cell Dispersal Reagent (Luminex Corporation) in all experiments. The concentration of the triterpenes in each assay was selected depending on the cellular concentration necessary to generate the gain signal in the instrument. This means that we attempted to select concentrations avoiding excessive cytotoxicity to accurately determine the respective signal from each assay.
The Muse® Autophagy LC3 Antibody-Based Kit (Luminex MCH200109, Luminex Corporation) was used to determine autophagy activation by monitoring lipidated LC3-II. After the A549 cells were treated with the triterpenes (IC25) for 24 h, autophagy reagent A was added for 4 h to prevent the lysosomal degradation of LC3-II. Then, the cells were detached and centrifuged. The pellet was suspended and incubated for 30 min in the autophagy reagent B containing anti-LC3-II mouse monoclonal antibody. Finally, the cell pellet was washed and suspended in fresh assay buffer for measurement. The autophagy response was calculated using the following formula:
Autophagy ratio = mean autophagy value of treated or untreated cells/mean autophagy value of starving cells.
The starving cells were labeled ‘No supp’ as non-supplemented cells. These served as the positive signal for autophagy and were designated a ratio of 1 since they were compared to themselves. A ratio ≥1 indicates the activation of the autophagic response.

[4] = system: MAPK/PI3K; experiment: MAPK/PI3K protein expression (dual pathway activation kit, flow cytometry); type: cell-based, human; settings: for MAPK/PI3K expression (in words): A549, IC25, 24 h, vs untreated cells; for MAPK/PI3K inhibition: summary, NSCLC A549 cells; for MAPK/PI3K inhibition: key: '✔' means induction; '-' means non-induction of any of the tested processes
Description: as §1
The Muse® P13K/MAPK Dual Pathway Activation Kit (Luminex MCH200108, Luminex Corporation) was used to determine MAPK/PI3K expression. After the incubation treatment with the triterpenes (IC25) for 24 h, the A549 cells were scraped, centrifuged, and washed once with 1× PBS. Next, the fixation buffer was incubated for 10 min and then the permeabilization buffer for another 10 min. Both incubations were performed on ice. Later, the antibody cocktail containing anti-phospho-Akt and anti-phospho-ERK1/2 was incubated for 30 min. Afterward, the cell pellet was washed and suspended in fresh assay buffer for measurement.

[5] = system: NSCLC A549 cells; parameters: method as in PMID 31338398; settings: 24 h, MTS/PMS; already obtained by the authors; cited from earlier work

Row | SMILES | TI [1] | TI > 1 [1] | Caspase 3 activation (in words) [2] | Autophagic response (in words) [3] | Autophagy inhibition [3] | MAPK/PI3K expression (in words) [4] | MAPK/PI3K inhibition [4] | IC50 [5] [µM] | Caspase 3 activation ([2]; summary, NSCLC A549 cells) | IC50 ([1]; Homo sapiens, A549, 24 h, MTS/PMS) [µM] | TI ([1]; TI = MRC5 IC50/A549 IC50, >1 means higher selectivity)
1 | C[C@H]1[C@H](C)CC[C@]2(C(=O)O)CC[C@]3(C)C(=CC[C@@H]4[C@@]5(C)CC[C@H](O)C(C)(C)[C@@H]5CC[C@]43C)[C@H]12 [UrA, ursolic acid] | 0.57 | - | higher caspase 3 activation than CisPt; also recorded: highest | induced an autophagic response similar to that of CisPt | - | induced the simultaneous expression of MAPK and PI3K | - | 23 ± 1 |  |  | 
2 | C=C(C)[C@@H]1CC[C@]2(C)CC[C@]3(C)[C@H](CC[C@@H]4[C@@]5(C)CC[C@H](O)C(C)(C)[C@@H]5CC[C@]43C)[C@@H]12 [Lupe, lupeol] | 1.26 |  |  | inhibit the LC3-II activity |  | did not affect the expression of MAPK/PI3K | - | 80 ± 6 | - |  | 
3 | C=C(C)[C@@H]1CC[C@]2(CO)CC[C@]3(C)[C@H](CC[C@@H]4[C@@]5(C)CC[C@H](O)C(C)(C)[C@@H]5CC[C@]43C)[C@@H]12 [Betu, betulin] | 0.73 | - | higher caspase 3 activation than CisPt | induced an autophagic response similar to that of CisPt | - | slightly inhibit the total expression of MAPK/PI3K |  |  |  | 22 ± 1 | 
4 | C=C(C)[C@@H]1CC[C@]2(C(=O)O)CC[C@]3(C)[C@H](CC[C@@H]4[C@@]5(C)CC[C@H](O)C(C)(C)[C@@H]5CC[C@]43C)[C@@H]12 [BeA, betulinic acid] | 1.27 |  |  |  |  | did not affect the expression of MAPK/PI3K | - | 15 ± 0.7 |  |  | > 1
